One may read the MIC as the lowest concentration found to suppress growth. Read a high MIC as a less susceptible organism.

The text below walks through data of DBAASP.

Among the test systems are Streptococcus iniae; Aeromonas hydrophila; Vibrio alginolyticus; Staphylococcus aureus; Lactococcus garvieae; Escherichia coli; Shigella flexneri; Aeromonas salmonicida; Klebsiella pneumoniae; Pseudomonas aeruginosa; Enterococcus faecalis; Micrococcus luteus; Escherichia coli 1106; Aerococcus viridans; Pseudomonas alginovora; Bacillus megaterium; Salmonella typhimurium; Escherichia coli D22; Escherichia coli D31; Escherichia coli SPE 001; Escherichia coli W3110.

What all share (assay): ≥ marks a high value that may be exact or a test limit, other limits are often not marked, values filed in µg/mL are converted to µM
In experiment [1] the test system is Streptococcus iniae 00-1425.
Experiment [2] concerns Shigella flexneri ATCC 12022.
In experiment [3] the test system is Aeromonas salmonicida NCTC 7812.
Experiment [4] relates to Lactococcus garvieae 00-1422.
Experiment [5] relates to Vibrio anguillarum ATCC 19264.
Experiment [6] relates to Escherichia coli ATCC 25922.
The test system of experiment [7] is Enterococcus faecalis ATCC 29212.
Experiment [8] has as its system Escherichia coli KCTC 1682.
Experiment [9] has as its system Pseudomonas aeruginosa KCTC 1637.
Experiment [10] concerns Staphylococcus aureus KCTC 1621.
Experiment [11] deals with Salmonella typhimurium KCTC 1926.
Experiment [12] deals with Candida albicans TIMM 1768.
Experiment [13] concerns Bacillus subtilis KCTC 1918.
The test system of experiment [14] is Streptococcus pyogenes KCTC 3096.
Experiment [15] deals with Aspergillus fumigatus KCTC 4165.
Experiment [16] relates to Pseudoalteromonas carrageenovora ATCC 43555.
Experiment [17] concerns Staphylococcus aureus NBRC 100910.
Experiment [18] concerns Staphylococcus aureus SPM 101.
Experiment [19] relates to Escherichia coli K-12 594.
Experiment [20] has as its system Staphylococcus aureus ATCC 6538P.
Experiment [21] has as its system Staphylococcus aureus SR1550.
Experiment [22] relates to Candida albicans NBRC 1385.

Converted amounts (≈) assume the structure as drawn.

On to `CC[C@H](C)[C@H](NC(=O)CNC(=O)[C@H](CCCN=C(N)N)NC(=O)[C@H](Cc1ccccc1)NC(=O)[C@@H](NC(=O)[C@H](Cc1cnc[nH]1)NC(=O)[C@H](Cc1cnc[nH]1)NC(=O)[C@@H](NC(=O)[C@@H](N)Cc1ccccc1)[C@@H](C)CC)[C@@H](C)CC)C(=O)N[C@H](C(=O)N[C@@H](Cc1cnc[nH]1)C(=O)N[C@@H](C)C(=O)NCC(=O)N[C@@H](CCCN=C(N)N)C(=O)N[C@@H](CO)C(=O)N[C@H](C(=O)NCC(=O)N[C@@H](CCCN=C(N)N)C(=O)N[C@@H](Cc1ccccc1)C(=O)N[C@@H](CC(C)C)C(=O)N[C@H](C(=O)NCC(=O)O)[C@@H](C)O)[C@@H](C)CC)C(C)C` [FIHHIFRGIVHAGRSIGRFLTG], for which the MIC in the experiment on Streptococcus iniae came to 1.24 µM (≈ 3.1 µg/mL); against Aeromonas hydrophila, 0.642 µM (≈ 1.6 µg/mL); in the experiment on Vibrio alginolyticus, 2.53 µM (≈ 6.3 µg/mL); in experiment [1], 2.51 µM (≈ 6.25 µg/mL); against Staphylococcus aureus, 1.24 µM (≈ 3.1 µg/mL); in the experiment on Lactococcus garvieae it was 1.77 µM (≈ 4.42 µg/mL). The MIC is 1.24 µM (≈ 3.1 µg/mL) with Escherichia coli; 20.1 µM (≈ 50 µg/mL) in experiment [2]; at least 80.3 µM in [3]; 20.1 µM (≈ 50 µg/mL) in experiment [4]; 2.53 µM (≈ 6.3 µg/mL) against Shigella flexneri; 3.55 µM (≈ 8.85 µg/mL) in experiment [5]. Also, the minimum inhibitory concentration (MIC) in experiment [6] was 80.3 µM (≈ 200 µg/mL); against Aeromonas salmonicida, 5.02 µM (≈ 12.5 µg/mL); in the experiment on Klebsiella pneumoniae, 2.53 µM (≈ 6.3 µg/mL); in the experiment with Pseudomonas aeruginosa, 10 µM (≈ 25 µg/mL); against Enterococcus faecalis it was 5.02 µM (≈ 12.5 µg/mL); in experiment [7], 1.26 µM (≈ 3.14 µg/mL).

As to `CCC(C)C(NC(=O)C(CCCCN)NC(=O)C(CCCCN)NC(=O)C(CC(C)C)NC(=O)C(CCCCN)NC(=O)C(CCC(=O)O)NC(=O)CN)C(=O)NCC(=O)NC(CCC(N)=O)C(=O)NC(CCCCN)C(=O)NC(C(=O)NC(CCCCN)C(=O)NC(CC(N)=O)C(=O)NC(Cc1ccccc1)C(=O)NC(Cc1ccccc1)C(=O)NC(CCC(N)=O)C(=O)NC(CCCCN)C(=O)NC(CC(C)C)C(=O)O)C(C)CC` (stereo not given) [GEKLKKIGQKIKNFFQKL], the minimum inhibitory concentration (MIC) in experiment [8] is at least 50 µM; in [9], 12.5 µM (≈ 26.8 µg/mL); in experiment [10], at least 50 µM; in [11], 12.5 µM (≈ 26.8 µg/mL); in experiment [12] it was at least 50 µM; in [13], at least 50 µM. Also, the MIC was at least 50 µM in experiment [14] and at least 100 µM in [15].

With `CC[C@H](C)[C@H](NC(=O)CN)C(=O)NCC(=O)N[C@@H](CCCCN)C(=O)N[C@@H](Cc1ccccc1)C(=O)N[C@@H](CC(C)C)C(=O)N[C@@H](CCCCN)C(=O)N[C@@H](CCCCN)C(=O)N[C@@H](C)C(=O)N[C@@H](CCCCN)C(=O)N[C@@H](CCCCN)C(=O)N[C@@H](Cc1ccccc1)C(=O)NCC(=O)N[C@@H](CCCCN)C(=O)N[C@@H](C)C(=O)N[C@@H](Cc1ccccc1)C(=O)N[C@H](C(=O)N[C@@H](CCCCN)C(=O)N[C@@H](CCSC)C(=O)N[C@@H](CCCCN)C(=O)N[C@@H](CCCCN)C(N)=O)C(C)C` [GIGKFLKKAKKFGKAFVKMKK], the minimal inhibitory concentration (MIC) in the experiment with Micrococcus luteus was found to be 0.707 µM (≈ 1.68 µg/mL); against Escherichia coli 1106, 1.41 µM (≈ 3.37 µg/mL); in experiment [16] it was 7.07 µM (≈ 16.8 µg/mL); with Aerococcus viridans, 0.707 µM (≈ 1.68 µg/mL); against Pseudomonas alginovora, 14.1 µM (≈ 33.7 µg/mL); with Staphylococcus aureus it was 1.41 µM (≈ 3.37 µg/mL). In addition, the minimal inhibitory concentration (MIC) against Bacillus megaterium came to 0.707 µM (≈ 1.68 µg/mL); in the experiment on Salmonella typhimurium it was 2.83 µM (≈ 6.74 µg/mL); in the experiment on Escherichia coli D22, 1.41 µM (≈ 3.37 µg/mL); with Enterococcus faecalis it was 12.6 µM (≈ 30.1 µg/mL); against Escherichia coli D31, 1.41 µM (≈ 3.37 µg/mL).

For the molecule `CC(C)C[C@H](NC(=O)[C@H](CCCCN)NC(=O)[C@H](CC(C)C)NC(=O)[C@H](CC(C)C)NC(=O)[C@H](CC(C)C)NC(=O)[C@H](CC(C)C)NC(=O)[C@H](CC(C)C)NC(=O)[C@H](CCCCN)NC(=O)[C@H](CC(C)C)NC(=O)[C@@H](N)CCCCN)C(=O)N[C@@H](CCCCN)C(N)=O` [KLKLLLLLKLK], the MIC in experiment [17] turned out to be 12.1 µM (≈ 16 µg/mL); in experiment [18] it was 0.378 µM (≈ 0.5 µg/mL); in [19], 15.1 µM (≈ 20 µg/mL); in experiment [20], 1.51 µM (≈ 2 µg/mL); in the experiment on Escherichia coli SPE 001 it was 12.1 µM (≈ 16 µg/mL); in the experiment on Escherichia coli W3110 it was 12.1 µM (≈ 16 µg/mL). Besides, the MIC is 22.7 µM (≈ 30 µg/mL) in experiment [21] and at least 48.4 µM in experiment [22].
